These are literature values, as cited in patent US20160286794A1, “PLANT DISEASE CONTROL AGENT AND PLANT DISEASE CONTROL METHOD” (UBE MATERIALS INDUSTRIES, LTD., priority 2013, published 2016).

The conditions of this data set: Hydrophile-Lipophile Balance of the nonionic surfactant.
In the case of “nonylphenyl polyethylene glycol [Nodinet P-40]”, the HLB is 13.0. Turning to “octylphenol polyethylene glycol ether [Triton X-100]”, the HLB is recorded as 13.5.

Turning to “polyethylene glycol sorbitan monolaurate [Tween 20]”, the HLB is reported as 16.7. Consider “polyethylene glycol sorbitan monooleate [Tween 80]”, for which the HLB is reported as 15.0. Take “polyoxyethylene branched nonyl cyclohexyl ether [Triton N-101]”: the HLB is listed as 13.5.
